Several values for one entry are separate records, joined by “and”; a condition that tells them apart may be missing. Equal entries are not always repeated. Where two headings read alike, the source gives them in different places.
How the values were obtained:
Format in all cases: cell-based
[1] = test system: SH-SY5Y (human neuroblastoma); assay: In vitro cytotoxicity, MTT test; settings: 72 h, read-out: Cytotoxicity IC50, SHSY5Y
Protocol: (§1) Anticancer activity of selenopheno[h]chromenes was tested in vitro using cytotoxicity assay. […] About 2-9·10^4 cells/mL (depending on line nature) were placed in 96-well plates immediately after compounds were added to the wells. Untreated cells were used as a control. The plates were incubated for 72 h, 37° C., 5% CO2. The number of surviving cells was determined using 3-(4,5-dimethylthiazol-2-yl)-2,5-diphenyltetrazolinium bromide (MTT). MTT-test: after incubating culture medium was removed and 200 μL fresh medium with 10 mM HEPES was added in each well of the plate, than 20 μL MTT (2 mg/mL in HBSS) was added. After incubation (3 hr, 37° C., 5% CO2), the medium with MTT was removed and 200 μL DMSO were added at once to each sample. The samples were tested at 540 nm on Anthos HT II photometer.

[2] = test system: MDA-MB-435s (human melanoma); assay: In vitro cytotoxicity, MTT test; settings: 72 h, read-out: Cytotoxicity IC50, MDA-MB-435s
Protocol: as §1

MG-22A (mouse hepatoma) = assay: In vitro cytotoxicity, MTT test; settings: 72 h, read-out: Cytotoxicity IC50, MG-22A
Protocol: as §1

[3] = test system: A549 (human lung carcinoma); assay: In vitro cytotoxicity, MTT test; settings: read-out: Cytotoxicity IC50, A549
Protocol: as §1

CCL-8 (mouse sarcoma) = assay: In vitro cytotoxicity, MTT test; settings: 72 h, read-out: Cytotoxicity IC50, CCL-8
Protocol: as §1

[4] = test system: HT-1080 (human fibrosarcoma); assay: In vitro cytotoxicity, MTT test; settings: read-out: Cytotoxicity IC50, HT-1080
Protocol: as §1

[5] = test system: MES-SA (human uterus sarcoma); assay: In vitro cytotoxicity, MTT test; settings: 72 h, read-out: Cytotoxicity IC50, MES-SA
Protocol: as §1

[6] = test system: MCF-7 (human breast adenocarcinoma, estrogen-positive); assay: In vitro cytotoxicity, MTT test; settings: read-out: Cytotoxicity IC50, MCF-7
Protocol: as §1

[7] = test system: HepG2 (human hepatocellular carcinoma); assay: In vitro cytotoxicity, MTT test; settings: read-out: Cytotoxicity IC50, HepG2
Protocol: as §1

[8] = Basal cytotoxicity test, Neutral Red Uptake (NRU) assay; settings: for LD50 at 24 h: mouse, po, acute oral LD50 calculated from 3T3 NRU IC50 by regression formula, read-out: Basal cytotoxicity Estimated* LD50; for IC50 at 24 h: normal mouse embryo fibroblasts, read-out: Cytotoxicity IC50, 3T3
Protocol: In parallel, the borderline concentration relevant to the highest tolerated dose has been determined for each compound using the NIH 3T3 (mouse embryo fibroblasts) cell line and the basal cytotoxicity obtained has then been used to predict the starting doses for in vivo acute oral LD50 values in rodents.
the Neutral Red Uptake (NRU) assay was performed according to the standard protocol of Stokes modified by the NICEATM-ECVAM validation study. The NRU cytotoxicity assay procedure is based on the ability of viable cells to incorporate and bind Neutral Red, a supravitally dye. Balb/c 3T3 (Mouse Swiss Albino embryo fibroblast) cells (9000 cells/well) were placed into 96-well plates for 24 h in Dulbecco's modified Eagle's (DMEM) medium containing 5% fetal bovine serum. The cells were then exposed to the test compounds over a range of […] concentrations (1000, 316, 100, 31, 10, 3, 1 μg/ml) for 24 h. Untreated cells were used as a control. After 24 h, the medium was removed from all plates. Then, 250 μL of Neutral Red solution were added (0.05 mg/mL NR in DMEM 24 h pre-incubated at 37° C. and then filtered before use through 0.22-μm syringe filter). Plates were incubated for 3 h and then cells were washed three times with PBS. The dye within viable cells was released by extraction with a mixture of acetic acid, ethanol and water (1:50:49). Absorbance of Neutral Red was measured using a spectrophotometer multiplate reader (TECAN, Infinite M1000) at 540 nm. The percentage of living cells was calculated using the formula: OD (treated cells)*100/OD (control cells). The IC50 values were calculated using the programme Graph Pad Prism® 3.0.
Data from the in vitro tests were used for estimating the starting dose for acute oral systemic toxicity tests in rodents. […] The value is recalculated to mg/kg and compounds are evaluated in accordance with four toxicity categories: category 1: LD50≤5 mg/kg (highly toxic); category 2: 5<LD50≤50 mg/kg (moderately toxic); category 3: 50<LD50≤300 mg/kg (slightly toxic); category 4: 300<LD50≤2 000 mg/kg (practically non-toxic).

[9] = Homo sapiens, A549, 72 h, MTT, 72 h

| SMILES | IC50 ([1]; Homo sapiens, SH-SY5Y, MTT) [µM] | IC50 ([2]; MTT) [µM] | IC50 (MG-22A (mouse hepatoma); MTT) [µM] | IC50 [3, 9] [µM] | IC50 (CCL-8 (mouse sarcoma); MTT) [µM] | IC50 ([4]; HT-1080, MTT, 72 h) [µM] | IC50 ([5]; MTT) [µM] | IC50 ([6]; MCF7, MTT, 72 h) [µM] | IC50 ([7]; HepG2, MTT, 72 h) [µM] | LD50 at 24 h [8] | IC50 at 24 h [8] [µM] | also measured |
| --- | --- | --- | --- | --- | --- | --- | --- | --- | --- | --- | --- | --- |
| COC1(c2[se]c3c(ccc4cc(C(=O)N5CCOCC5)c(=O)oc43)c2Br)CCCCC1 [Compound I-22, 7-Bromo-8-(1-methoxycyclohexyl)-3-(morpholine-4-carbonyl)-2H-selenopheno[3,2-h]chromen-2-one] | 98 ± 3 | 43 ± 3 | 37 ± 1 | 43 ± 4 | 39 ± 3 | 38 ± 2 | 41 ± 2 | 18 ± 2 | 47 ± 2 | 300 µmol/kg and 195 mg/kg | 47 ± 4 | – |
| CCCCCCCCCCOC(=O)c1cc2ccc3c(Br)c(C4(O)CCCCC4)[se]c3c2oc1=O [Compound I-7] | > 117 | 152 ± 9 | > 164 | > 164 | 81 ± 2 | > 164 | > 164 | 48 ± 13 | 151 ± 6 | > 3300 µmol/kg and > 2000 mg/kg | > 164 | – |
| COC(=O)c1cc2ccc3c(Br)c(C4=CCCC4)[se]c3c2oc1=O [Compound I-2, Methyl 7-bromo-8-(cyclopent-1-en-1-yl)-2-oxo-2H-selenopheno[3,2-h]chromene-3-carboxylate] | > 117 | 142 ± 12 | > 235 | 122 ± 8 | 82 ± 8 | 110 ± 12 | 155 ± 3 | 281 ± 12 | 197 ± 24 | 500 µmol/kg and 194 mg/kg | > 235 | – |
| O=C(c1cc2ccc3c(Br)c(C4=CCCCC4)[se]c3c2oc1=O)N1CCCCC1 [Compound I-19, 7-Bromo-8-(cyclohex-1-en-1-yl)-3-(piperidine-1-carbonyl)-2H-selenopheno[3,2-h]chromen-2-one] | > 117 | 51 ± 8 | 41 ± 2 | 100 ± 3 | > 193 | 50 ± 5 | 105 ± 4 | 125 ± 8 | 103 ± 15 | 1000 µmol/kg and 500 mg/kg | 161 ± 23 | – |
| COC(=O)c1cc2ccc3c(Br)c(C4(OC)CCCCC4)[se]c3c2oc1=O [Compound I-4, Methyl 7-bromo-8-(1-methoxycyclohexyl)-2-oxo-2H-selenopheno[3,2-h]chromene-3-carboxylate] | > 117 | 103 ± 4 | 446 ± 6 | > 201 | 95 ± 2 | 52 ± 5 | 201 ± 5 | 46 ± 14 | 103 ± 5 | 1100 µmol/kg and 548 mg/kg | 198 ± 2 | – |
| COC(=O)c1cc2ccc3c(Br)c(C4(O)CCCCC4)[se]c3c2oc1=O [Compound I-3, Methyl 7-bromo-8-(1-hydroxycyclohexyl)-2-oxo-2H-selenopheno[3,2-h]chromene-3-carboxylate] | ≤ 19 | 64 ± 6 | 33 ± 6 | ≤ 19 | 186 ± 9 | 27 ± 1 | 66 ± 3 | 29 ± 2 | > 117 | > 5600 µmol/kg | 207 ± 9 | IC50 ([1]; MTT): 19 ± 3 µM; IC50 ([3]; MTT, 72 h): 19 ± 2 µM |
| Cl.O=C(O)c1cc2ccc3c(Br)c(CN4CCCCC4)[se]c3c2oc1=O [Compound I-13, 7-Bromo-2-oxo-8-(piperidin-1-ylmethyl)-2H-selenopheno[3,2-h]chromene-3-carboxylic acid hydrochloride] | – | – | – | – | – | – | – | – | – | 4300 µmol/kg and 2180 mg/kg | 197 ± 8 | IC50 ([1]; Homo sapiens, SH-SY5Y): > 197 µM; IC50 [2]: 182 ± 11 µM; IC50 (MG-22A (mouse hepatoma)): 49 ± 6 µM; IC50 ([3]; Homo sapiens, A549, 72 h): 129 ± 6 µM; IC50 (CCL-8 (mouse sarcoma)): > 122 µM; IC50 ([4]; HT-1080, 72 h): 197 ± 3 µM; IC50 [5]: 103 ± 9 µM; IC50 ([6]; MCF7, 72 h): 119 ± 2 µM; IC50 ([7]; HepG2, 72 h): > 197 µM |
| CCCCCCCCOC(=O)c1cc2ccc3c(Br)c(C4=CCCCC4)[se]c3c2oc1=O [Compound I-16, Octyl 7-bromo-8-(cyclohex-1-en-1-yl)-2-oxo-2H-selenopheno[3,2-h]chromene-3-carboxylate] | > 117 | > 122 | > 122 | > 117 | – | > 117 | > 117 | > 117 | > 177 | 876 mg/kg | > 177 | – |
| CC(C)CCC[C@@H](C)[C@H]1CC[C@H]2[C@@H]3CC=C4C[C@@H](OC(=O)c5cc6ccc7c(Br)c(C8=CCCCC8)[se]c7c6oc5=O)CC[C@]4(C)[C@H]3CC[C@]12C [Compound I-17, (3S,8S,9S,10R,13R,14S,17R)-10,13-Dimethyl-17-((R)-6-methylheptan-2-yl)-2,3,4,7,8,9,10,11,12,13,14,15,16,17-tetradecahydro-1H-cyclopenta[a]phenanthren-3-yl-7-bromo-8-(cyclohex-1-en-1-yl)-2-oxo-2H-selenopheno[3,2-h]chromene-3-carboxylate] | > 117 | – | – | > 117 | – | > 117 | > 117 | > 117 | > 117 | 3000 µmol/kg and 2450 mg/kg | > 117 | – |

Source: patent US10561681B2, “Antimetastatic 2H-selenopheno[3,2-h]chromenes, synthesis thereof, and methods of using same agents” (Latvian Institute of Organic Synthesis, priority 2016, dated 2020)
